In publication PMC8842310 (Journal of Medicinal Chemistry, 2022):

Tested on: CDI iCell cardiomyocytes
Settings: geometric mean of the MEC values for beat period, Na+ slope, Na+ amplitude, field duration

CCNC(=N)NC(=O)Nc1c(CC)cc(NS(=O)(=O)c2ccccc2)cc1CC [5n, N-(3,5-Diethyl-4-(3-(N-ethylcarbamimidoyl)ureido)phenyl)benzenesulfonamide]
MEC Gmean cardiomyocytes: 8.9 µM
